# According to patent US9689042B2, “Use of glycolytic pathways for inhibiting or measuring oncogenic signaling” (The Regents of the University of California, priority 2012, dated 2017):
# Entries after “also recorded” stand apart in the source; their conditions may differ.
# Tests used:
# [1] = system: T4-2 cells; details: T4-2 cells, 3D lrECM; for phenotypic reversion of the malignant phenotype: 2DG 4 mM, IA 20 μM, OX 50 mM, Azs 20 μM, DON 20 μM, BADGP 5 mM, TM 10 ng/ml, OGM 4 ng/ml, Rapa 0.01-1.0 μM
# Procedure: HMT-3522 cells were cultured on tissue culture plastic (2D) and in 3D lrECM gels with H14 medium, a 1:1 mix of DMEM/F12 (UCSF Cell Culture Facility) supplemented with 250 ng/ml insulin, 10 μg/ml transferrin, 2.6 ng/ml sodium selenite, 0.1 nM β-estradiol, 1.4 μM hydrocortisone and 5 μg/ml prolactin but no serum. S1 cells were additionally supplemented with 10 ng/ml EGF. MDA-MB-231 and HCC70 cells were cultured in DMEM and RPMI1640, respectively, and were supplemented with 10% fetal bovine serum (FBS).
# For 3D lrECM cultures, S1 and T4-2 cells were seeded at 840,000 and 600,000 cells per cm3 respectively in lrECM gel (Cultrex), overlaid with H14 medium. MDA-MB-231 and HCC70 cells were seeded at 625,000 cell per cm3 and overlaid with H14 medium supplemented with 1% FBS. Cells were used for each assay after 10 days, unless otherwise indicated.
# Pieces of lrECM gel containing cell colonies were suspended in approximately the same volume of phosphate buffered saline (PBS) and directly spread on glass slides. After brief air-drying, colonies were fixed with 3.7% paraformaldehyde (PFA) in PBS at room temperature (RT) for 10 min, washed with PBS containing 0.1 mM glycine, and permeabilized with 1:1 methanol/acetone at −20° C. for 10 min. After blocking with IF buffer (0.2% Triton X-100, 0.1% BSA [radioimmunoassay grade], 0.05% Tween 20, 7.7 mM NaN3 in PBS) containing 10% goat serum and 1% goat F(ab′)2 anti-mouse immunoglobulin G (IgG; Caltag) at RT for 30 min, colonies were stained with anti-α6 integrin antibody (Chemicon International) at 4° C. overnight. Colonies were washed extensively with IF buffer, and stained with Alexa 568-labeled anti-rat IgG antibody at RT for 2 hr. Colonies were washed with IF buffer again, and nuclei were stained with DAPI at RT for 10 min. Slides were briefly washed with PBS and mounted with 50% glycerol in PBS.
# To test whether increased glucose metabolism itself is required for oncogenic signaling events, we utilized 3D lrECM cultures of HMT-3522, a breast cancer progression series which includes non-malignant (S1) and malignant (T4-2) human breast epithelial cells from the same individual (Briand et al., 1987; Petersen et al., 1992; Rizki et al., 2008). Using these cells, we have described the involvement and reciprocity of multiple signaling pathways including EGFR, β1 integrin, PI3K-Akt and MEK-ERK in oncogenic events (Beliveau et al., 2010; Bissell et al., 2005). […] We thus used this “phenotypic reversion” of the cancer cells as an assay to examine how the signaling integration plan of the breast acini could involve glucose metabolism.
# [2] = system: EGFR, β1 integrin, Akt, MEK, GLUT3, glycolytic enzymes in T4-2 cells; test: Western blots of signaling intermediates, GLUT3 and metabolic enzymes in 3D lrECM cultures of T4-2 cells; type: cell-based, human; details: T4-2 cells, 3D lrECM
# Procedure: (§1) Cell colonies were separated from lrECM gels by shaking in PBS containing 5 mM EDTA and the proteinase inhibitor cocktail set I (Calbiochem) on ice for 30 min. Cells were lysed in lysis buffer (1% NP-40, 1% deoxycholate, 2% SDS, 150 mM NaCl, 20 mM Tris-HCl [pH 7.4] plus 5 mM EDTA and protease inhibitor cocktail set I and phosphatase inhibitor cocktail set I [Calbiochem]) and sonicated three times for 30 sec each. Proteins were separated by SDS-PAGE, transferred to nitrocellulose membranes, and probed with antibodies against the following proteins: phosphorylated MEK, MEK, phosphorylated Akt, Akt, phosphorylated AMPK, AMPK, p70S6K, phosphorylated p70S6K, CHOP, EPAC1 (Cell Signaling), β1 integrin, EGFR, activated EGFR, HIF-1α, (Chemicon International), PFKP (Abgent), GAPDH, GLUT3 (GeneTex), LDHA, PDHE1α, DLAT, DLD, HIF-3α, Rap1, sAC, EPAC2, OGT, Lamin A/C (Santa Cruz Biotechnology), Aldolase (Polysciences), GFPT (ProteinTech Group), HIF-2α (Abcam), and HA-tag (Covance). After probing with HRP-conjugated secondary antibodies, blots were developed using SuperSignal West Femto chemiluminescence reagent (Pierce Biotechnology). Images were captured using Fluor Chem 8900 imager (Alpha Innotech).
# [3] = system: T4-2 cells; test: Glucose uptake assay (IRDye800CW-2DG) in 3D lrECM; type: cell-based, human
# Procedure: (§2) Cells suspended in 200 μl lrECM were seeded in 12 well glass-bottom plates (14 mm diameter; MatTek Corporation). Gels were overlaid with 500 μl H14 media and cultured for 10 days before each assay unless otherwise described.
# For glucose uptake assay, cells were incubated with 1 μM of IRDye800CW-2DG (LI-COR Biosciences) for 1 hour, fixed within gels with 4% paraformaldehyde (PFA) in PBS for 30 min. and stained with DRAQ5 (1:10000 dilution), an infrared dye that binds stoichiometrically to DNA, for 30 min. Cells were extensively washed with PBS, then IRDye800-2DG uptake together with DRAQ5 staining were measured by using Odyssey Infrared Imaging System (LI-COR Biosciences).
# (§3) In each assay, one well, containing only lrECM, was made for background measurements. Glucose uptake measured by 2DG uptake, lactate production and MitoTracker staining were normalized using total DNA levels, and presented relative to that of control (either S1 or non-treated T4-2 cells).
# [4] = system: T4-2 cells; test: Lactate production assay in 3D lrECM; type: cell-based, human
# Procedure: as §2
# For lactate production, on day 9, conditioned-media were harvested to measure lactate remaining in the 200 μl of the gel (assuming equilibrium between medium and gel, C0 nmol/μl). […] After 24 hours, total culture medium was harvested for measurement of final lactate concentrations (C nmol/μl) and total volumes (V μl) of the conditioned-media, and the cells in gel were fixed with PFA as above. Concentration of lactate in each sample was measured using a lactate assay kit (BioVision). Net lactate production within 24 hours (N) was calculated as follows: N=C×(V+200)−C0×200. Fixed cells were stained with DRAQ5, to measure total level of DNA as a surrogate for number of cells, and the staining was measured as above.
# as §3
# [5] = system: T4-2 cells; test: Mitochondrial activity (MitoTracker oxidation) assay in 3D lrECM; type: cell-based, human
# Procedure: as §2
# For mitochondrial activity, we slightly modified the method described previously (Morici et al., 2007). Briefly, cells were incubated with 2 μM MitoTracker® Orange CM-H2 TMRos (Invitrogen) for 1 hour and fixed with PFA as above. Cells were counterstained with Hoechst 33342 (Invitrogen), which is known also to bind to DNA stoichiometrically, then MitoTracker and Hoechst staining were measured by taking z-section images from top to bottom of the gels using confocal microscopy.
# as §3
# [6] = system: HCC70 cells; test: 3D lrECM culture of HCC70 cells; type: cell-based, human; details: IA 2 μM, DON 20 μM
# [7] = system: MDA-MB-231 cells; test: 3D lrECM culture of MDA-MB-231 cells; type: cell-based, human; details: IA 40 μM, DON 20 μM
# [8] = system: MDA-MB-231 cells; test: In vitro invasive activity (Matrigel invasion chamber); type: cell-based, human; details: IA 40 μM, DON 20 μM, 17.5 mM glucose, 16 hours
# Procedure: Invasive activity was examined using BD Biocoat GFR (growth factor reduced) Matrigel invasion chamber (BD Biosciences). Before the assay, lower surface of the membrane of the upper chamber was coated with collagen type I (10 μg/ml). MDA-MB-231 cells cultured on 2D plastic for two days with H14 medium containing different concentrations of glucose (17.5, 1.75 or 0 mM) or supplemented with metabolic inhibitors (40 μM IA or 20 μM DON, with 17.5 mM glucose) were detached by trypsinization, and 25,000 cells in each condition were seeded on the upper chambers. Both upper and lower chambers were filled with medium of the same formulations as that in each 2D culture. After 16 hours, cells were fixed with 4% PFA in PBS and stained with crystal violet.
# [9] = system: signaling intermediates in MDA-MB-231 cells; test: Western blots of signaling intermediates in MDA-MB-231 cells; type: cell-based, human; details: IA 40 μM, DON 20 μM
# Procedure: as §1
# [10] = system: Rap1; test: Measurement of Rap1 activity (GST-RalGDS-RBD pull-down) in T4-2 cells; type: cell-based, human; details: T4-2 cells, 3D lrECM, IA 20 μM
# Procedure: Rap1 activity was measured as described previously (Itoh et al., 2007). Briefly, cell colonies were extracted from lrECM as described above, and lysed in lysis buffer (50 mM Tris-HCl [pH 7.4], 500 mM NaCl, 1% NP40, 2.5 mM MgCl2, 10% glycerol, 10 μg/ml aprotinin and 10 μg/ml leupeptin) at 4° C. for 30 min. Lysates were cleared by centrifugation at 15,000×g at 4° C. for 15 min. Supernatants (containing 300 μg protein in 300 μl) were incubated with 15 μg of GST-tagged RalGDS-RBD fusion protein immobilized on Glutathione Sepharose 4B beads (GE Healthcare), at 4° C. for 1 hr. Beads were washed trice in lysis buffer and resuspended in Laemmli buffer. Samples were separated by SDS-PAGE, followed by transfer to polyvinylidene fluoride membranes (0.2 μm pore) and immunoblotting using anti-Rap1 antibody.
# [11] = same inhibitor concentrations as E1
SMILES,phenotypic reversion of the malignant phenotype [1],"basal polarity / organized acinar structures [1, 11]","growth / proliferation (cell numbers at the colony mid-section, EdU incorporation) [1, 11]","levels and/or activities of EGFR, β1 integrin, Akt and MEK (oncogenic signaling) ([2]; Western blot)","EGFR expression and activity ([2]; Azs 20 μM, DON 20 μM)",glucose uptake [3],lactate production [4],mitochondrial activity (oxidation) [5],reversion phenotype [6],altered phenotype [7],proliferation (total cell numbers) [7],invasive property [8],other signaling activities [9],"EGFR and MEK ([2]; basal medium 17.5 mM glucose, IA 20 μM, OX 50 mM)",Rap1 activity [10]
"[N-]=[N+]=CC(=O)CC[C@H](N)C(=O)O [DON, 6-diazo-5-oxonorleucine]",do induce phenotypic reversion; also recorded: induced the repertoire of the reversion phenotype,re-establishment of tissue polarity,growth arrest,suppression of activation of oncogenic signaling,significantly down-regulated,significantly down-regulated,significantly down-regulated,remained unaltered,reversion phenotype was similar to that in T4-2 cells,incomplete but still significant,appreciable decrease,appreciable decrease,appreciable decrease,,
"O=C(O)CI [IA, Iodoacetate]",do induce phenotypic reversion,,,,,,,,reversion phenotype was similar to that in T4-2 cells,incomplete but still significant,appreciable decrease,appreciable decrease,appreciable decrease,not affected appreciably,down-regulation of Rap1 activity without a change in its total protein level
